{
  "source": "patent US20030161799A1",
  "about": "“Practical and humane method for armpit odor care” (priority 2002, published 2003)",
  "key": {"axillary malodor": {"test_system": "axillary malodor", "assay": "topical treatment of axillary malodor on the skin", "assay_type": "in vivo, human", "details": "for effect against axillary malodors: topical application to armpits, applicants' own experiments; for outcome of treatment of repeated infections: overnight", "from_the_text": "Non-prescription azoles sold in groceries are intended for treating feet or vaginal fungal infections. Essentially the same compositions are often sold for feet and vaginal applications under different labels and in different forms. For axillary use, we strongly prefer them as creams.\nIn our experiments, we treated the armpits, then switched to all new underwear, and rigorously sterilized it with chlorine-based bleaches after every use. […]\nA person, low perspiration, axillary malodor since puberty. […] Now uses peroxide bleach all the time."}, "[1]": {"details": "in vivo", "description": "(§1) Undecylenic acid, salicylic acid and peroxides suffer from certain disadvantages."}, "[2]": {"assay": "skin tolerability on armpit application", "description": "as §1"}},
  "note": "Like-named read-outs stand apart in the source and are kept apart here.",
  "data": [
    {"compound": "CN(C/C=C/C#CC(C)(C)C)Cc1cccc2ccccc12", "note": "[Terbinafine]", "values": [
      {"measurement": "effect against axillary malodors", "setting": "axillary malodor", "result": "some effect"}
    ]},
    {"compound": "C=CCCCCCCCCC(=O)O", "note": "[Undecylenic acid]", "values": [
      {"measurement": "adverse skin effects", "setting": "[1]", "result": "may cause pain, burning and irritations"},
      {"measurement": "effect against axillary malodors", "setting": "axillary malodor", "result": "functional"}
    ]},
    {"compound": "O=C(OOC(=O)c1ccccc1)c1ccccc1", "note": "[benzoyl peroxide]", "values": [
      {"measurement": "effect against axillary malodors", "setting": "axillary malodor", "result": "functional"}
    ]},
    {"compound": "Clc1ccccc1C(c1ccccc1)(c1ccccc1)n1ccnc1", "note": "[clotrimazole]", "values": [
      {"measurement": "time at which the odor disappears", "setting": "axillary malodor; mature axillary malodor, cream two times a day, two weeks treatment", "result": "between the fourth and the seventh day"}
    ]},
    {"compound": "OO", "note": "[hydrogen peroxide]", "values": [
      {"measurement": "effect against axillary malodors", "setting": "axillary malodor", "result": "functional"}
    ]},
    {"compound": "Clc1ccc(COC(Cn2ccnc2)c2ccc(Cl)cc2Cl)c(Cl)c1", "note": "(stereo not shown) [miconazole]", "values": [
      {"measurement": "outcome of treatment of repeated infections", "setting": "axillary malodor; person, two times in a row", "result": "cured"},
      {"measurement": "outcome of first treatment of axillary malodor", "setting": "axillary malodor; person, two applications per day, seven days in a row", "result": "Successfully treated"}
    ]},
    {"compound": "O=C(O)c1ccccc1O", "note": "[salicylic acid]", "values": [
      {"measurement": "effect against axillary malodors", "setting": "axillary malodor", "result": "functional"},
      {"measurement": "adverse skin effects", "setting": "[2]", "result": "may cause pain, burning and irritations"}
    ]},
    {"compound": "Clc1ccc(C(Cn2ccnc2)OCc2ccsc2Cl)c(Cl)c1", "note": "(stereo not shown) [tioconazole]", "values": [
      {"measurement": "outcome of treatment of repeated infections", "setting": "axillary malodor; person, one-time treatment", "result": "cured"},
      {"measurement": "effectiveness compared with clotrimazole", "setting": "axillary malodor; vaginal tioconazole product, topical on armpits", "result": "much more effective than clotrimazole"}
    ]},
    {"compound": "Cc1cccc(N(C)C(=S)Oc2ccc3ccccc3c2)c1", "note": "[tolnaftate]", "values": [
      {"measurement": "effect against axillary malodors", "setting": "axillary malodor", "result": "some effect"}
    ]}
  ]
}
